Assay results reported in publication PMC6269118, “Populene D Analogues: Design, Concise Synthesis and Antiproliferative Activity” (Molecules, 2012).
In brackets after ≈: the same amount, converted by molar mass. Where two headings read alike, the source gives them in different places.

Assays:
U251 (glioma) cells = assay: Antiproliferative sulforhodamine B assay, U251; type: cell-based; settings: Homo sapiens, U-251, 48 h treatment, SRB; for IC100: read-out: Total growth inhibition (TGI)
Procedure: (§1) The in vitro antiproliferative activity of populene analogues 2a–e and 3a–e was investigated toward nine human tumor cell lines [CNS (U251), breast (MCF-7), ovarian (NCI-ADR/RES, OVCAR-03), renal (786-0), non-small cell lung (NCI-H460), prostate (PC-3), colon (HT-29) and leukemia (k-562)] and one human normal cell line (HaCat, human keratinocytes). The populene D analogues were tested at concentrations between 0.25 and 250 µg/mL and doxorubicin (DOX 0.025–25 µg/mL) was used as positive control. […] To analyze the GI50 parameter, mean log GI50 was calculated by conversion of the GI50 values for each tumor cell line tested (not including the normal cell line HaCat) against a test compound and then these values were averaged.
(§2) Stock cultures were grown in 5 mL of RPMI 1640 (GIBCO BRL, Life Technologies) supplemented with 5% of fetal bovine serum. Penicillin:streptomycin (1,000 μg mL^−1:1,000 UI mL^‑1, 1 mL L^−1) was added to the experimental cultures.
(§3) Afterwards cells were fixed with 50% trichloroacetic acid and cell proliferation determined by spectrophotometric quantification (540 nm) of cellular protein content using sulforhodamine B assay[20]. Doxorubicin (0.025–25 mg/mL) was used as positive control. Three measurements were obtained at the beginning of incubation (time zero, T0) and 48 h post-incubation for compound-free (C) and tested (T) cells. Cell proliferation was determined according to the equation 100 × [(T − T0)/C − T0], for T0 < T ≤ C, and 100 × [(T − T0)/T0], for T ≤ T0 and a concentration-response curve for each cell line was plotted and, from these curves, GI50 (concentration causing 50% growth inhibition) and TGI (concentration that promotes total growth inhibition) were determined by means of non-linear regression analysis using software ORIGIN 8.0 (OriginLab Corporation) [20, 21] The average activity (mean of log GI50) of each compound tested was also determined using MS Excel software.

MCF-7 (breast) cells = assay: Antiproliferative sulforhodamine B assay, MCF-7; type: cell-based; settings: Homo sapiens, MCF7, MCF-7 mammary, 48 h treatment, SRB; for IC100: read-out: Total growth inhibition (TGI)
Procedure: as §1, §2, §3

[1] = tested on: NCI-ADR/RES (ovarian expressing phenotype multiple drugs resistance) cells; assay: Antiproliferative sulforhodamine B assay, NCI-ADR/RES; type: cell-based; settings: Homo sapiens, NCI-ADR/RES drug resistant ovary, 48 h treatment, SRB; for IC100: read-out: Total growth inhibition (TGI)
Procedure: as §1, §2, §3

786-0 (renal) cells = assay: Antiproliferative sulforhodamine B assay, 786-0; type: cell-based; settings: Homo sapiens, 786-0 kidney, 48 h treatment, SRB; for IC100: read-out: Total growth inhibition (TGI)
Procedure: as §1, §2, §3

PC-3 (prostate) cells = assay: Antiproliferative sulforhodamine B assay, PC-3; type: cell-based; settings: Homo sapiens, Prostate cell, 48 h treatment, SRB; for IC100: read-out: Total growth inhibition (TGI)
Procedure: (§4) The populene D analogues were tested at concentrations between 0.25 and 250 µg/mL and doxorubicin (DOX 0.025–25 µg/mL) was used as positive control. […] To analyze the GI50 parameter, mean log GI50 was calculated by conversion of the GI50 values for each tumor cell line tested (not including the normal cell line HaCat) against a test compound and then these values were averaged.
as §2, §3

OVCAR-3 (ovarian) cells = assay: Antiproliferative sulforhodamine B assay, OVCAR-3; type: cell-based; settings: Homo sapiens, OVCAR-3 ovary, 48 h treatment, SRB; for IC100: read-out: Total growth inhibition (TGI)
Procedure: as §4, §2, §3

HT-29 (colon) cells = assay: Antiproliferative sulforhodamine B assay, HT-29; type: cell-based; settings: Homo sapiens, 48 h treatment, SRB; for IC100: read-out: Total growth inhibition (TGI)
Procedure: as §4, §2, §3

K-562 (leukemia) cells = assay: Antiproliferative sulforhodamine B assay, K-562; type: cell-based; settings: Homo sapiens, K562, 48 h treatment, SRB; for IC100: read-out: Total growth inhibition (TGI)
Procedure: as §1
(§5) Cells in 96-well plates (100 μL cells/well) were exposed to various concentrations of compounds 2a–d and 3a–d diluted in DMSO (0.25, 2.5, 25 and 250 μg/mL) at 37 °C, 5% of CO2 for 48 h. […] Afterwards cells were fixed with 50% trichloroacetic acid and cell proliferation determined by spectrophotometric quantification (540 nm) of cellular protein content using sulforhodamine B assay[20]. Doxorubicin (0.025–25 mg/mL) was used as positive control. Three measurements were obtained at the beginning of incubation (time zero, T0) and 48 h post-incubation for compound-free (C) and tested (T) cells. Cell proliferation was determined according to the equation 100 × [(T − T0)/C − T0], for T0 < T ≤ C, and 100 × [(T − T0)/T0], for T ≤ T0 and a concentration-response curve for each cell line was plotted and, from these curves, GI50 (concentration causing 50% growth inhibition) and TGI (concentration that promotes total growth inhibition) were determined by means of non-linear regression analysis using software ORIGIN 8.0 (OriginLab Corporation) [20, 21] The average activity (mean of log GI50) of each compound tested was also determined using MS Excel software.

[2] = Antiproliferative sulforhodamine B assay, HaCat normal cell line; type: cell-based, human; settings: human; HaCat normal immortalized keratinocytes, 48 h treatment, SRB
Procedure: as §1, §2, §3

[3] = tested on: HaCat (immortalized human keratinocytes); assay: as above; type: cell-based; settings: 48 h treatment, SRB
Procedure: as §1, §2, §3

[4] = tested on: nine human tumor cell lines; assay: Average antiproliferative activity over the tumor cell line panel (NCI criteria); type: cell-based; settings: for GI50: Homo sapiens, 48 h; for Cytostatic activity classified in words by NCI criteria on mean logGI50: weak 1.1-1.5, moderate 0-1.1, potent <0, inactive >1.5
Procedure: as §1, §5

[5] = tested on: NCI-H460 (lung, non-small cells) cells; assay: Antiproliferative sulforhodamine B assay, NCI-H460; settings: for GI50: Homo sapiens, NCI-H460, 48 h; for Total growth inhibition (TGI): NCI-H460 lung, 48 h treatment, SRB
Procedure: as §4, §2, §3

[6] = average of logGI50 (GI50 in μg/mL) over tumor cell lines tested, not including HaCat, read-out: Mean logGI50 (converted)
[7] = class symbol by NCI's criteria on mean logGI50, read-out: Mean logGI50 activity class (NCI's criteria)

Row | SMILES | GI50 (U251 (glioma) cells) | IC100 (U251 (glioma) cells) | GI50 (MCF-7 (breast) cells) | IC100 (MCF-7 (breast) cells) | GI50 [1] | IC100 [1] | GI50 (786-0 (renal) cells) | IC100 (786-0 (renal) cells) | GI50 (OVCAR-3 (ovarian) cells) | IC100 (OVCAR-3 (ovarian) cells) | GI50 (HT-29 (colon) cells) | IC100 (HT-29 (colon) cells) | GI50 at 48 h [2] | Total growth inhibition (TGI) [3] | GI50 [4, 6] | GI50 [4, 7] | Cytostatic activity classified in words by NCI criteria on mean logGI50 [4] | melting point | GI50 [5] | Total growth inhibition (TGI) [5] | also measured
1 | CC1COC(C)(C)C2=C1c1ccc(O)cc1CC2 (centres unmarked) [3b, 1,4,4-Trimethyl-1,4,5,6-tetrahydro-2H-benzo[f]isochromen-8-ol] | 46.3 mg/L (≈ 189 µM) | > 250 µg/mL | 108 mg/L (≈ 441 µM) | > 250 µg/mL | > 250 mg/L | > 250 µg/mL | 36.8 mg/L (≈ 151 µM) | > 250 µg/mL | > 250 mg/L | > 250 µg/mL | 78.4 mg/L (≈ 321 µM) | > 250 µg/mL | > 250 mg/L | >250 mg/L | > 100 mg/L | > 31.6 mg/L | inactive | 199 to 201 °C | 41.4 mg/L (≈ 169 µM) | >250 mg/L | GI50 (PC-3 (prostate) cells): > 250 mg/L; IC100 (PC-3 (prostate) cells): > 250 µg/mL; GI50 (K-562 (leukemia) cells): 41.2 mg/L (≈ 169 µM); IC100 (K-562 (leukemia) cells): > 250 µg/mL
2 | CC1COC(C)(C)C2=C1c1cc(O)ccc1CC2 (centres unmarked) [3c, 1,4,4-Trimethyl-1,4,5,6-tetrahydro-2H-benzo[f]isochromen-9-ol] | 27.8 mg/L (≈ 114 µM) | 67.9 µg/mL | 24.7 mg/L (≈ 101 µM) | 45 µg/mL | 25 mg/L (≈ 102 µM) | 200 µg/mL | 24.6 mg/L (≈ 101 µM) | 43 µg/mL | 1.8 mg/L (≈ 7.37 µM) | 31.5 µg/mL | 22.9 mg/L (≈ 93.7 µM) | 53.3 µg/mL | 3.6 mg/L (≈ 14.7 µM) | >250 mg/L | 14.1 mg/L (≈ 57.8 µM) | 12.6 to 31.6 mg/L (≈ 51.5 to 129 µM) | weak | 160 to 162 °C | 24.2 mg/L (≈ 99 µM) | 45.9 mg/L | GI50 (PC-3 (prostate) cells): 24.5 mg/L (≈ 100 µM); IC100 (PC-3 (prostate) cells): 51.8 µg/mL; GI50 (K-562 (leukemia) cells): 8.7 mg/L (≈ 35.6 µM); IC100 (K-562 (leukemia) cells): 39.2 µg/mL
3 | COc1cc2c(cc1O)C1=C(CC2)C(C)(C)OCC1C (centres unmarked) [3d, 8-Methoxy-1,4,4-trimethyl-1,4,5,6-tetrahydro-2H-benzo[f]isochromen-9-ol] | 23.1 mg/L (≈ 84.2 µM) | 45.9 µg/mL | 24.6 mg/L (≈ 89.7 µM) | 58.2 µg/mL | 5.2 mg/L (≈ 19 µM) | 37.6 µg/mL | 24.1 mg/L (≈ 87.8 µM) | 47.8 µg/mL | 24.3 mg/L (≈ 88.6 µM) | 69.9 µg/mL | 6 mg/L (≈ 21.9 µM) | 32.3 µg/mL | 4.2 mg/L (≈ 15.3 µM) | 160.7 mg/L | 14.5 mg/L (≈ 52.7 µM) | 12.6 to 31.6 mg/L (≈ 45.9 to 115 µM) | weak | 141 to 143 °C | 45.1 mg/L (≈ 164 µM) | >250 mg/L | –
4 | CC1COC(C)(C)C2=C1c1cc(O)c(O)cc1CC2 (centres unmarked) [3e, 1,4,4-Trimethyl-1,4,5,6-tetrahydro-2H-benzo[f]isochromene-8,9-diol] | 19.6 mg/L (≈ 75.3 µM) | 28.4 µg/mL | 5.5 mg/L (≈ 21.1 µM) | 41.6 µg/mL | 5.7 mg/L (≈ 21.9 µM) | > 250 µg/mL | 5.6 mg/L (≈ 21.5 µM) | 19.4 µg/mL | 3.9 mg/L (≈ 15 µM) | 34.4 µg/mL | 19.5 mg/L (≈ 74.9 µM) | 39 µg/mL | 4.2 mg/L (≈ 16.1 µM) | >250 mg/L | 8.13 mg/L (≈ 31.2 µM) | 1 to 12.6 mg/L (≈ 3.84 to 48.4 µM) | moderate | 122 to 123 °C | 17.4 mg/L (≈ 66.8 µM) | >250 mg/L | –
5 | COc1cccc2c1C(=O)c1c(O)c3c(c(O)c1C2=O)C[C@@](O)(C(=O)CO)C[C@@H]3O[C@H]1C[C@H](N)[C@H](O)[C@H](C)O1 [Doxorubicine, doxorubicin, reference compound] | 0.062 mg/L (≈ 0.114 µM) | 1.1 µg/mL | 0.21 mg/L (≈ 0.386 µM) | 8.8 µg/mL | 1.3 mg/L (≈ 2.39 µM) | 25 µg/mL | 0.04 mg/L (≈ 0.0736 µM) | 0.62 µg/mL | 0.26 mg/L (≈ 0.478 µM) | 3.9 µg/mL | 0.22 mg/L (≈ 0.405 µM) | 25 µg/mL | 0.23 mg/L (≈ 0.423 µM) | 0.67 mg/L | 0.166 mg/L (≈ 0.305 µM) | < 1 mg/L | – | – | < 0.025 mg/L | 0.025 mg/L | GI50 (PC-3 (prostate) cells): 0.27 mg/L (≈ 0.497 µM); IC100 (PC-3 (prostate) cells): 4.4 µg/mL; GI50 (K-562 (leukemia) cells): 0.4 mg/L (≈ 0.736 µM); IC100 (K-562 (leukemia) cells): 25 µg/mL
